Measured values: US5708063A, “Photochromic compound” (Tokuyama Corporation, priority 1993, dated 1998)

How the values were obtained:
[1] = Photochromic PMMA cast film: initial coloration density, maximum absorption wavelength and fatigue life in xenon fadeometer (Example 9); type: physicochemical; conditions: PMMA cast film 0.1 mm; for λmax / Initial color density: xenon light; for Initial color density / T1/2: no stabilizer; for T1/2: time for color density to fall to half of initial value, xenon fadeometer;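 on Initial color density: initial color density is an absorbance value so the % unit is wrong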
Source text: The thickness of the cast film was adjusted to 0.1 mm.
(§1) T1/2 is defined as the time required for the color density to decrease to half of its initial value when the film is exposed to the fadeometer.

[2] = Durability of poly(allyl diglycol carbonate) lens impregnated with the compound in silicone oil, as in Example 9 (Example 10); type: physicochemical; set-up: Initial color density: unit not given here; conditions: silicone oil impregnation; for Initial color density: 1.0×10^-4 mole/g; for T1/2: xenon fadeometer
Experimental: as §1
The solution was impregnated in the surface of a lens composed of poly(allyl diglycol carbonate) at 200° C. for 1 hour. The concentration of the solution was adjusted to 1.0×10^-4 mole/g.

`COc1cc(OC)c2c(c1)C(C1C(C)(C)C1(C)C)=C1C(=O)N(Cc3ccc4ccccc4c3)C(=O)C1C21C2CCC1CC2` (centres unmarked) [(18)] showed a λmax [1] of 603 nm, an Initial color density [1] of 0.62% and a T1/2 [1] of 61 h.
With `COC(=O)CN1C(=O)C2=C(C3CC3)c3ccoc3C3(C4CCC3CC4)C2C1=O` (centres unmarked) [(20)] the λmax [1] was 531 nm, the Initial color density [1] was 0.82% and the T1/2 [1] was 89 h. For the same compound, the λmax [2] was 535 nm, the Initial color density [2] was 0.73 and the T1/2 [2] was 95 h.
Compound `COC(=O)C(C)N1C(=O)C2=C(C3CC3)c3cc(-c4cccc(OC)c4)sc3C3(C4CC5CC(Cl)(C4)CC3(Cl)C5)C2C1=O` (centres unmarked) [(35)] has a λmax [1] of 574 nm, an Initial color density [1] of 0.73% and a T1/2 [1] of 85 h. The λmax [2] was 580 nm, the Initial color density [2] was 0.67 and the T1/2 [2] was 90 h.
Work on `CC1=C2C(=O)N(CCCc3ccc4cc(N(C)C)ccc4c3)C(=O)C2C2(c3scc([N+](=O)[O-])c31)C1CC3CC(C1)CC2C3` (centres unmarked) [(E), reference compound] yielded a λmax [1] of 535 nm and a T1/2 [1] of 14 h.
In the case of `CC(=O)OCN1C(=O)C2=C(C3CC3)c3sc(Br)cc3C3(C4CC5CC(C4)CC3C5)C2C1=O` (centres unmarked) [(42)], the λmax [1] is reported as 548 nm, the Initial color density [1] is reported as 0.57% and the T1/2 [1] is reported as 68 h. For the same compound, the λmax [2] was 553 nm, the Initial color density [2] was 0.51 and the T1/2 [2] was 71 h.
`COc1cc2c(c(OC)c1OC)C1(C3CCC1CC3)C1C(=O)OC(=O)C1=C2C1CC1` (centres unmarked) [(51)] gave a λmax [1] of 561 nm, an Initial color density [1] of 0.92% and a T1/2 [1] of 52 h. It also gave a λmax [2] of 562 nm, an Initial color density [2] of 0.82 and a T1/2 [2] of 55 h.
`CC1=C2C(=O)N(CC#N)C(=O)C2C2(c3occc31)C1CCC2CC1` (centres unmarked) [(D), reference compound] gave a λmax [1] of 535 nm, an Initial color density [1] of 0.90% and a T1/2 [1] of 48 h.
Compound `N#CCN1C(=O)C2=C(C3CC3Oc3ccccc3)c3ccoc3C3(C4CCC3CC4)C2C1=O` (centres unmarked) [(22)] has a λmax [1] of 554 nm, an Initial color density [1] of 0.81% and a T1/2 [1] of 88 h. It also gave a λmax [2] of 559 nm, an Initial color density [2] of 0.70 and a T1/2 [2] of 93 h.
Work on `CC1=C2C(=O)N(C[N+](=O)[O-])C(=O)C2C2(c3sc(C)cc31)C1CCC2CC1` (centres unmarked) [(C), reference compound] yielded a λmax [1] of 556 nm, an Initial color density [1] of 0.72% and a T1/2 [1] of 80 h.
Compound `CC1=C2C(=O)N(CCc3cccc4ccccc34)C(=O)C2C2(c3c1sc1c3CCCC1)C1CCCC2CCC1` (centres unmarked) [(F), reference compound] has a λmax [1] of 508 nm, an Initial color density [1] of 0.47% and a T1/2 [1] of 13 h.
In the case of `O=C1C2=C(C3CC3)c3sc4c(c3C3(C5CCCC3CCC5)C2C(=O)N1CCc1cccc2ccccc12)CCCC4` (centres unmarked) [(33)], the λmax [1] is reported as 519 nm, the Initial color density [1] is reported as 0.56% and the T1/2 [1] is reported as 7.8 h. For the same compound, the λmax [2] was 525 nm, the Initial color density [2] was 0.49 and the T1/2 [2] was 80 h.
For `CC(C)COC(=O)CN1C(=O)C2=C(C3C(CCl)C3CCl)c3cc(Br)sc3C3(C4CCCC3CCC4)C2C1=O` (centres unmarked) [(23)], the λmax [1] was 539 nm, the Initial color density [1] was 0.87% and the T1/2 [1] was 53 h.
`CC1=C2C(=O)OC(=O)C2C2(c3sc4c(c31)CCCC4)C1CCCC2CCC1` (centres unmarked) [(G), reference compound] gave a λmax [1] of 585 nm, an Initial color density [1] of 0.71% and a T1/2 [1] of 10 h.
With `O=C1C2=C(C3CC3)c3cc(Br)sc3C3(C4CCCC3CCC4)C2C(=O)N1CCc1ccc2ccccc2c1` (stereo not drawn) [(3), 2-bromo-4-cyclopropyl-6,7-dihydrido-N-(β-naphtylethyl)spirobenzo[5,6-b]thiophenedicarboxyimido-7'9'-bicyclo[3.3.1]nonane] the λmax [1] was 545 nm, the Initial color density [1] was 0.88% and the T1/2 [1] was 45 h. It also gave a λmax [2] of 550 nm, an Initial color density [2] of 0.81 and a T1/2 [2] of 49 h.
For `Cc1cc2c(s1)C1(C3CC4CC(Cl)(C3)CC1(Cl)C4)C1C(=O)OC(=O)C1=C2C1CC1` (centres unmarked) [(58)], the λmax [1] was 554 nm, the Initial color density [1] was 1.24% and the T1/2 [1] was 48 h.
For `O=C1OC(=O)C2C1=C(C1CC1)c1c(oc3ccccc13)C21C2CCC1CC2` (centres unmarked) [(52)], the λmax [1] was 534 nm, the Initial color density [1] was 1.21% and the T1/2 [1] was 54 h.
With `COCCOCN1C(=O)C2=C(C3(F)C(F)(F)C3(F)F)c3c(oc4ccccc34)C3(C2C1=O)C1(F)CCC3(F)CC1` (centres unmarked) [(16)] the λmax [1] was 498 nm, the Initial color density [1] was 0.82% and the T1/2 [1] was 91 h.
`N#CCOCN1C(=O)C2=C(C3CC3c3ccccc3)c3sccc3C3(C2C1=O)C1(Cl)CCC3(Cl)CC1` (centres unmarked) [(14)] showed a λmax [1] of 552 nm, an Initial color density [1] of 0.58% and a T1/2 [1] of 69 h.
For `CN(C)c1ccc2cc(CCCN3C(=O)C4=C(C5CC5)c5c([N+](=O)[O-])csc5C5(C6CC7CC(C6)CC5C7)C4C3=O)ccc2c1` (centres unmarked) [(47)], the λmax [1] was 529 nm, the Initial color density [1] was 0.72% and the T1/2 [1] was 52 h.
For `COC12CCC(CC1)C21c2oc3ccccc3c2C(C2CC2(Br)Br)=C2C(=O)N(CC(=O)OC(C)(C)CCC#N)C(=O)C21` (centres unmarked) [(13)], the λmax [1] was 495 nm, the Initial color density [1] was 0.69% and the T1/2 [1] was 47 h.
Compound `Cn1c2c(c3ccccc31)C1(C3CC4CC(C3)CC1C4)C1C(=O)N(CC(C)(C)CCOC(=O)CBr)C(=O)C1=C2C1CC1CCCc1ccccc1` (centres unmarked) [(38)] has a λmax [1] of 592 nm, an Initial color density [1] of 0.61% and a T1/2 [1] of 68 h.
For `COc1cc(OC)c2c(c1)C(C1CC1O)=C1C(=O)N(C3CCC([N+](=O)[O-])CC3)C(=O)C1C21C2CCCC1(Cl)CCC2` (centres unmarked) [(29)], the λmax [1] was 588 nm, the Initial color density [1] was 0.52% and the T1/2 [1] was 62 h.
Work on `Cc1cc2c(n1C)C1(C3CCCC1CCC3)C1C(=O)OC(=O)C1=C2C1CC1` (centres unmarked) [(53)] yielded a λmax [1] of 525 nm, an Initial color density [1] of 1.18% and a T1/2 [1] of 56 h. It also gave a λmax [2] of 530 nm, an Initial color density [2] of 1.08 and a T1/2 [2] of 60 h.
For `COc1cc2c(c(OC)c1OC)C1(C3CC4CC1CC(OC)(C4)C3)C1C(=O)N(CC(=O)NCCBr)C(=O)C1=C2C1CC1C(Cl)(Cl)Cl` (centres unmarked) [(39)], the λmax [1] was 527 nm, the Initial color density [1] was 0.58% and the T1/2 [1] was 65 h.
In the case of `CCOc1cc2c(s1)C1(C3CCCC1CCC3)C1C(=O)OC(=O)C1=C2C1CC1` (centres unmarked) [(55)], the λmax [1] is reported as 545 nm, the Initial color density [1] is reported as 1.25% and the T1/2 [1] is reported as 58 h. For the same compound, the λmax [2] was 550 nm, the Initial color density [2] was 1.13 and the T1/2 [2] was 61 h.
Compound `CCC(C#N)N1C(=O)C2=C(C3CC3[N+](=O)[O-])c3c(sc4c3CCCC4)C3(C4CCCC3(C)CCC4)C2C1=O` (centres unmarked) [(25)] has a λmax [1] of 562 nm, an Initial color density [1] of 0.71% and a T1/2 [1] of 76 h. The λmax [2] was 565 nm, the Initial color density [2] was 0.65 and the T1/2 [2] was 79 h.
For `COC12CCCC(CCC1)C21c2c(Cl)csc2C(C2CC2CCc2ccccc2)=C2C(=O)N(CC(=O)NCCBr)C(=O)C21` (centres unmarked) [(28)], the λmax [1] was 526 nm, the Initial color density [1] was 0.56% and the T1/2 [1] was 54 h.
For `CCOC(=O)C12CC3CC(C1)C1(c4c([N+](=O)[O-])csc4C(C4CC4Br)=C4C(=O)N(CC(F)(F)F)C(=O)C41)C(C(=O)OCC)(C3)C2` (centres unmarked) [(43)], the λmax [1] was 509 nm, the Initial color density [1] was 0.62% and the T1/2 [1] was 72 h.
Compound `Cc1cc2c(s1)C1(C3CCC1CC3)C1C(=O)N(C[N+](=O)[O-])C(=O)C1=C2C1CC1` (centres unmarked) [(8)] has a λmax [1] of 571 nm, an Initial color density [1] of 0.69% and a T1/2 [1] of 75 h. For the same compound, the λmax [2] was 578 nm, the Initial color density [2] was 0.63 and the T1/2 [2] was 80 h.
Work on `CCC(C(=O)OCCc1ccc2ccccc2c1)N1C(=O)C2=C(C)c3ccsc3C3(C4CC5CC(C4)CC3C5)C2C1=O` (centres unmarked) [(A), reference compound] yielded a λmax [1] of 520 nm, an Initial color density [1] of 0.51% and a T1/2 [1] of 24 h.
In the case of `CCOC(=O)OCN1C(=O)C2=C(C3C(c4ccccc4)C3c3ccccc3)c3cc(-c4ccc(OC)cc4)sc3C3(C4CCCC3CCC4)C2C1=O` (centres unmarked) [(31)], the λmax [1] is reported as 624 nm, the Initial color density [1] is reported as 0.77% and the T1/2 [1] is reported as 81 h. For the same compound, the λmax [2] was 616 nm, the Initial color density [2] was 0.69 and the T1/2 [2] was 86 h.
Compound `CCSC1CC1C1=C2C(=O)N(C(CC)COC(=O)OC[N+](=O)[O-])C(=O)C2C2(c3scc([N+](=O)[O-])c31)C1CC3CC2CC(C)(C3)C1` (centres unmarked) [(37)] has a λmax [1] of 540 nm, an Initial color density [1] of 0.77% and a T1/2 [1] of 75 h.
Work on `COC(=O)C(C)N1C(=O)C2=C(C3CC3OC(C)(C)C)c3cc(Cl)oc3C3(C4CCCC3(C)CC(C)(C)C4)C2C1=O` (centres unmarked) [(26)] yielded a λmax [1] of 546 nm, an Initial color density [1] of 0.78% and a T1/2 [1] of 72 h.
Compound `CNC(=O)CN1C(=O)C2=C(C3CC3C(F)(F)F)c3cc([N+](=O)[O-])sc3C3(C4CCC3CC4)C2C1=O` (centres unmarked) [(11)] has a λmax [1] of 530 nm, an Initial color density [1] of 0.75% and a T1/2 [1] of 65 h.
`CC1=C2C(=O)N(CCCCC(=O)OCCc3ccc4ccccc4c3)C(=O)C2C2(c3sccc31)C1CC3CC(C1)CC2C3` (centres unmarked) [(B), reference compound] gave a λmax [1] of 538 nm, an Initial color density [1] of 0.49% and a T1/2 [1] of 16 h.
Compound `CCCCC1CC2CCCC(C1)C21c2sc(C)c(CC)c2C(C2C(I)C2I)=C2C(=O)N(CC3CCCCC3C#N)C(=O)C21` (centres unmarked) [(27)] has a λmax [1] of 553 nm, an Initial color density [1] of 0.68% and a T1/2 [1] of 51 h.
`COC1CC1C1=C2C(=O)N(Cc3ccc4ccccc4c3)C(=O)C2C2(c3c1sc1ccccc31)C1CCC2CC1` (centres unmarked) [(19)] showed a λmax [1] of 524 nm, an Initial color density [1] of 0.58% and a T1/2 [1] of 81 h.
